Columns and labels:
[1] = test system: mice subjected to fetal reprogramming; experiment: Treadmill endurance test of mice subjected to fetal reprogramming; format: in vivo; conditions: for running distance / running distance increase versus control / running time / running time increase versus control: maternal 10 mg/kg, gestation and lactation; for Increase Rate (Administration Group/Control Group), Distance / Increase Rate (Administration Group/Control Group), Time: 10 mg/kg/day; for muscle colour after skin removal versus control: fetal reprogramming, 10 mg/kg/day oral
Experimental: Before the experiment, mice were exercised for 5 minutes at a speed of 7 meters/min for two days so as to be adapted to exercising equipment. On day 3, the main experiment was conducted. As for the method for experiment, the mice were made to run at a speed of 10 meter/min for 60 minutes, and after that, the speed was increased at 1 meter/min once every 15 minutes until the maximum speed reaches 15 meters/min. As for the male mice, the running time was increased by 2.9 fold ([…], P<0.0001, n=6) and the running distance was increased by 3.0 fold (9927±1168 versus 3303±394 m, P<0.0001) in the PPAR δ agonist (CMDD1111)-administered mouse group than the control mouse group.
The Experiment using pregnant C57BL/6 mice was conducted in order to verify an endurance enhancement effect by fetal reprogramming of CMDD1226. […]
The experiment for verifying the fetal reprogramming effect of GW501516 and determining the optimum administration period thereof was conducted. The experiment method was shown in FIG. 1, and the experiment was conducted with respect to three kinds of administration periods (gestation period, lactation period, and both of gestation and lactation periods). As the experiment result, the group administered with PPAR δ agonist only during the gestation period had 2.6-fold and 3.2-fold increases in the running time and the running distance, respectively, and the group administered with PPAR δ agonist only during the lactation period had 2.4-fold and 3.0-fold increases in the running time and the running distance, respectively, as compared with the control group. The group administered with PPAR δ agonist during both the gestation and lactation periods had the most obvious increase in endurance, and had 5.1-fold and 6.6-fold increases as compared with the control group (FIG. 22).
The animal test was conducted in order to verify the muscle endurance enhancement and muscular function improvement effects of the material according to the present invention. […] […] The test using a treadmill was conducted in order to confirm the effect of this muscular fiber change on muscle endurance enhancement and muscular function improvement.

[2] = test system: mice subjected to fetal reprogramming; experiment: Morris water maze test of fetal-reprogrammed mice; format: in vivo; conditions: for Morris water maze test: average time required to find the platform: 8-week old, maternal 10 mg/kg/day gestation and lactation; for Morris water maze test time: mother 10 mg/kg/day oral during the fetal reprogramming period
Experimental: An animal experiment was conducted in order to verify a memory improvement effect of the mice subjected to fetal reprogramming by PPAR δ agonist. Pregnant mice were orally administered with PPAR δ agonist, CMDD1111, at a concentration of 10 mg/kg/day during the gestation and lactation periods in order to verify effects of the invented material at the brain formation stage. When the fetus became an 8-week old adult, the Morris water maze test was conducted to compare memory between the control group and the administration group. This test can check special learning and memory, and is a task that is mainly dependent on the hippocampus in the brain. As the experiment result, the average times required to find the flatform were 26 seconds and 22 seconds (male and female, respectively) for the control group and were 9 seconds and […] (male and female, respectively) for the administration group. Therefore, it was verified that the PPAR δ agonist improved memory during the fetal programming period, and this effect was maintained until the adulthood.
The animal test was conducted in order to verify the memory improvement effect of the material according to the present invention. Compounds 5 and 9, which are the developed materials, were orally administered to the mother at a concentration of 10 mg/kg/day during the fetal reprogramming period. The Morris water maze test was used to confirm the difference in brain function between the control group and the administered group.

hPPARa = biological target: T1, hPPARa (Homo sapiens, UniProt Q07869); experiment: Transfection assay in CV-1 cells, hPPARa; format: cell-based; conditions: luciferase reporter
T1 construct: expressed in transfected cells; host or cells: CV-1 cells
T1 sequence (Q07869 1-468): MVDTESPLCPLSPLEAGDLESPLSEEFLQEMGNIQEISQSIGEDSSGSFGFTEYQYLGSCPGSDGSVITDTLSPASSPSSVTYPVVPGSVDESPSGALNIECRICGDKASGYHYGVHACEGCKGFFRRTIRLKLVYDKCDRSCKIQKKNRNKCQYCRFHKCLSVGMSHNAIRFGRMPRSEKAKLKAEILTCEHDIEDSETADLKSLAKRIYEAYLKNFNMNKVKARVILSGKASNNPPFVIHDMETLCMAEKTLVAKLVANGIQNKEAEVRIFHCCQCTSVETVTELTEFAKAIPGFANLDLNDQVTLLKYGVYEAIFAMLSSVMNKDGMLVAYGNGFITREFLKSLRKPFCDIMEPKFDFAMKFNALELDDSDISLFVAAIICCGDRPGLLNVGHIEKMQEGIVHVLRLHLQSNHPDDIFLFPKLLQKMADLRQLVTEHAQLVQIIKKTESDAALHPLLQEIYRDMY
Experimental: This assay was conducted by using CV-1 cells. The cells were cultured on a 96-well plate with a DMEM medium containing 10% FBS, DBS (delipidated), and 1% penicillin/streptomycin in 37° C. of an incubator 5% of carbon dioxide. Test was conducted in four stages of cell inoculation, transfection, treatment with the developed material, and result confirmation. The CV-1 cells were inoculated on the 96-well plate at a cell density at 5,000 cells/well, and after 24 hours, transfection was performed. PPARs plasmid DNA, reporter DNA, and β-galactosidase DNA were mixed with a transfection reagent, and then used to treat the cells. The developed material was dissolved in dimethylsulfoxide (DMSO), and then was used to treat the cells by using media at various concentrations. After 24 hours of culturing in an incubator, the cells were lysed with a lysis buffer and luciferase activity and β-galactosidase activity were measured using a luminometer and a microplate reader. The measured luciferase value was calibrated with the β-galactosidase value, and this value was depicted on a graph and EC50 was determined.

[3] = test system: C57BL/6 mice with obesity induced by 35% fat feedstuff; experiment: Obesity suppression effect in high-fat diet mice; format: in vivo; conditions: 10 mg/kg/day oral, 60-day high-fat diet (35% fat)
Experimental: Test using mice was conducted in order to confirm the in vivo effect of the material according to the present invention. 8-week old C57BL/6 mice were used, and feedstuff containing 35% fat was used to induce obesity. A. vehicle and Compounds 5 and […] were orally administered. over 60-day period of high-fat diet.

In the case of `Cc1cc(SC(Cc2ccccc2)c2sc(-c3ccc(C(F)(F)F)cc3)nc2C)ccc1OCC(=O)O` (stereo not drawn) [CMDD1111], the running distance ([1]; female mice) is reported as 11194±261 m, the “running distance increase versus control” value ([1]; female mice) is reported as 2.1 fold and the running time ([1]; female mice) is reported as 761 ± 17 min. For the same compound, the “running time increase versus control” value ([1]; female mice) was 2.0 fold, the running distance ([1]; male mice) was 9927±1168 m and the “running distance increase versus control” value ([1]; male mice) was 3.0 fold. For the same compound, the running time ([1]; male mice) was 677 ± 78 min, the “running time increase versus control” value ([1]; male mice) was 2.9 fold and the “Morris water maze test: average time required to find the platform” value ([2]; female) was 6 s. For the same compound, the “Morris water maze test: average time required to find the platform” value ([2]; male) was 9 s.

For `Cc1cc(SC(Cc2ccc(-c3ccc(F)cc3)cc2)c2sc(-c3ccc(C(F)(F)F)cc3)nc2C)ccc1OCC(=O)O` (stereo not drawn) [Compound 9], the “Increase Rate (Administration Group/Control Group), Distance” value ([1]; Gestation + Lactation Periods) was 3.0 fold, the “Increase Rate (Administration Group/Control Group), Time” value ([1]; Gestation + Lactation Periods) was 2.8 fold and the “Increase Rate (Administration Group/Control Group), Distance” value ([1]; Gestation Period) was 1.9 fold. For the same compound, the “Increase Rate (Administration Group/Control Group), Time” value ([1]; Gestation Period) was 1.9 fold, the “Increase Rate (Administration Group/Control Group), Distance” value ([1]; Lactation Period) was 1.5 fold and the “Increase Rate (Administration Group/Control Group), Time” value ([1]; Lactation Period) was 1.5 fold. For the same compound, the “muscle colour after skin removal versus control” value [1] was “redder than the control group”, the “Morris water maze test time” value [2] was 9.7 s and the “EC50 hPPARa” value (hPPARa) was “ia”. For the same compound, the “obesity suppression effect versus vehicle control” value [3] was 33%.

With `Cc1cc(SC(Cc2ccc(-c3ccccc3)cc2)c2sc(-c3ccc(C(F)(F)F)cc3)nc2C)ccc1OCC(=O)O` (stereo not drawn) [Compound 5] the “Increase Rate (Administration Group/Control Group), Distance” value ([1]; Gestation + Lactation Periods) was 3.9 fold, the “Increase Rate (Administration Group/Control Group), Time” value ([1]; Gestation + Lactation Periods) was 3.6 fold and the “Increase Rate (Administration Group/Control Group), Distance” value ([1]; Gestation Period) was 2.5 fold. For the same compound, the “Increase Rate (Administration Group/Control Group), Time” value ([1]; Gestation Period) was 2.4 fold, the “Increase Rate (Administration Group/Control Group), Distance” value ([1]; Lactation Period) was 2.2 fold and the “Increase Rate (Administration Group/Control Group), Time” value ([1]; Lactation Period) was 2.1 fold. For the same compound, the “muscle colour after skin removal versus control” value [1] was “redder than the control group”, the “Morris water maze test time” value [2] was 8.2 s and the “EC50 hPPARa” value (hPPARa) was “ia”. For the same compound, the “obesity suppression effect versus vehicle control” value [3] was 35%.
